One assay relates to souris. As to conditions: mouse; for Nombre de passages (moyenne): 60 min before test, controls 5,5.
In assay [1] the test system is singes cynomolggus (Macaca fascicularis). The settings on record: monkey.
From the text: L'étude a été réalisée chez sept singes cynomolggus (Macaca fascicularis), de sexe mâle et femelle, pesant entre 2 et 5 kg.
Un mois avant le début de l'étude, sous anesthésie générale (kétamine + xylazine) huit électrodes (boules d'argent) ont été implantées dans la table osseuse, au niveau des aires frontale, centrale, pariétale et occipitale droites et gauche. L'électrocorticogramme a été enregistré sur un électroencéphalographe REEGA mini-huit (Alvar Electronic) en dérivations monopolaires par rapport à une référence commune.
Les enregistrements ont été réalisés sur des animaux habitués au siège à contention, en position assise, dans une pièce calme mais non insonorisée, en ambiance lumineuse tamisée.
Les huit dérivations EEG ont été analysées simultanément par un Neuromapper 1620 (Neuroscience) qui extrait du signal les transformées de Fourier ("Fast Fourier Transform" : FFT). En fait, 90 échantillons de 2 secondes, soit 3 minutes de tracé exempt d'artefact, ont été analysés. Les données recueillies correspondent à l'amplitude (»V) de chacune des 5 bandes de fréquence EEG classiques selon les bornes suivantes : delta de 0 à 4 Hz ; thêta de 7 à 8 Hz ; alpha de 8 à 13 Hz, bêta₁ de 13 à 20 Hz ; bêta₂ de 20 à 30 Hz.
Pour chacune de ces bandes ont ensuite été calculées : • Les puissances absolues en »V² • les puissances relatives (%), c'est-à-dire la puissance de chacune des bandes de fréquence rapportée à la puissance totale du spectre (power) • la "SEF 95 % (Spectral Edge Frequency 95 %) qui est la fréquence en deçà de laquelle se situent 95 % de la puissance totale du spectre, • le rapport entre fréquences rapides et fréquences lentes : alpha+ bêta/delta + thêta ( α+β/δ+ϑ [formula] )
La dernière ingestion a précédé de 1 heure la seconde administration de diazépam.
Le diazépam (ampoules injectables - Valium® 10 - Roche) a été administré par voie orale, en solution aqueuse, sous un volume de 10 ml/singe, à des doses comprises entre 0,5 mg.kg⁻¹ et 4 mg.kg⁻¹ (doses différentes du fait d'une sensibilité individuelle propre à chaque sujet).
100 (le seuil de probabilité statistique choisi peut paraître élevé ; il est en rapport avec le faible nombre de sujets : n=7). L'ensemble de l'analyse statistique a été obtenu grâce au programme statistique SPSS/PC⁺ (SPSS Inc., Chicago)

Molecules are shown by their SMILES. Read-outs that look alike come from different tables or passages of the source.

From the text for souris: Le test est pratiqué chez des souris NMRI-HAN soumises à une diète hydrique préalable de 18 heures et réparties en séries de 15.
L'appareillage utilisé consiste en une boite en plexiglas dont le sol est constitué de 4 plaques métalliques séparées les unes des autres. Un circuit d'alimentation permet d'établir une différence de potentiel entre deux plaques adjacentes grâce à un contacteur. Le test est pratiqué en plaçant doucement une souris sur une des plaques du fond de l'appareil ; les plaques sont électrifiées chaque fois que la souris passe de l'une à l'autre, de telle sorte qu'elle reçoit alors un choc électrique au niveau des pattes. Les paramètres du choc sont les suivants : durée de l'impulsion électrique égale à 0,5 seconde ; intensité égale à 0,6 milliampères. Ce choc induit chez les animaux une réaction motrice évidente de fuite, la souris traversant souvent 2 à 3 plaques successivement. Les conditions expérimentales adoptées ont été les suivantes : exploration libre pendant 15 secondes, traversée punie pendant la minute suivante, les résultats étant exprimés en nombre de passages "punis" pendant cette minute. Soixante souris ont été réparties de la façon suivante :
Les administrations ont été réalisées par voie intra-gastrique, à partir de solutions aqueuses, sous un volume constant de 20 ml.kg⁻¹, 60 minutes avant le début du test. Les animaux contrôles ont reçu un même volume d'eau distillée.
Les administrations ont été réalisées par voie intra-gastrique, à partir de solutions aqueuses, sous un volume constant de 20 ml.kg⁻¹ par produit 60 minutes avant le début du test. Les animaux contrôles ont reçu un même volume d'eau distillée.
Dans un premier temps a été calculée la DA 50 (dose anxiolytique 50) du Diazépam (Valium® 10 mg - Roche, ampoule 2ml) seul, administré à des doses suivant une progression géométrique de base 0,25 et de raison 2, soit respectivement 0,25, 0,5 l et 2 mg.kg⁻¹.
La DA 50 est déterminée à partir du pourcentage d'animaux tranquillisés. Est considéré comme tranquillisé tout animal dont le nombre de passages punis est égal ou supérieur à 9, c'est-à-dire à une valeur représentant une augmentation d'au moins 50 % par rapport au score moyen d'animaux non traités.
Toutes les administrations ont été réalisées par voie intra-gastrique à partir de solutions aqueuses, sous un volume constant de 20 ml.kg⁻¹ (eau distillée pour le groupe contrôle). […] La veille du test, les souris sont soumises à une diète hydrique de 18 heures. La dernière ingestion est pratiquée une heure avant l'étude, concomitamment avec le diazépam (Valium® 10 mg - Roche, ampoules de 2 ml).

Turning to `CN1C(=O)CN=C(c2ccccc2)c2cc(Cl)ccc21` [Diazépam, reference compound], the “Nombre de passages (moyenne)” value in the assay on souris (Valium alone 0,5 mg.kg⁻¹ P.O.) is listed as 7,7; in the assay with souris (Valium alone 0,25 mg.kg⁻¹ P.O.), 7,3; with souris (Valium alone 1 mg.kg⁻¹ P.O.), 9,5; with souris (Valium alone 2 mg.kg⁻¹ P.O.) it was 10,6. In the assay on souris (diazepam alone P.O., from % tranquillised animals (>= 9 punished crossings)), the “DA 50 (dose anxiolytique 50)” value is 0,76 mg.kg⁻¹. The “durée de l'action” value in assay [1] (diazepam alone 0,5-4 mg.kg⁻¹ P.O.) is recorded as “jusqu'à la 5ème heure”. Besides, the “valeurs du rapport α+β/δ+ϑ” value in assay [1] (diazepam alone 0,5-4 mg.kg⁻¹ P.O., figure 4) is on record as “augmentation durable”. Besides, the “acmé de l'effet” value in assay [1] (diazepam alone 0,5-4 mg.kg⁻¹ P.O., time after ingestion) came to 45 minutes à une heure. In addition, the “proportion relative de la bande β₂” value in assay [1] (diazepam alone 0,5-4 mg.kg⁻¹ orally, at peak effect one hour after ingestion, reference 20 %) is recorded as 27%. The “"SEF 95 %": temps du maximum” value in assay [1] (diazepam alone (first test), figure 3) worked out at 30 min.

For the origin of these results see patent EP0476120B1, “PROCESS FOR PREPARING EQUIMOLAR SALTS OF ASPARTIC ACID AND MAGNESIUM, MAGNESIUM ASPARTATE SALT OBTAINED BY SAID PROCESS AND ITS APPLICATIONS” (LA[…] SPINDLER, priority 1990, dated 1991).
